The values below come from PubChem BioAssay (NCI).

Several values for one entry are separate records, joined by “and”; a condition that tells them apart may be missing. Equal entries are not always repeated.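 Cultured in 96-well plates, cells were exposed to test compound for 48 hours across five concentrations. GI50 = concentration required for 50% inhibition of growth. TGI: concentration producing complete growth inhibition.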

Common to all, as to assay: NCI-60 cell line screen, 48 h
Test [1] deals with A498 renal.
The test system of test [2] is HS 578T breast.
Test [3] relates to LOX IMVI melanoma.
For test [4], the system named is MCF7 breast.
In test [5] the test system is NCI-H226 lung.
In test [6] the test system is SF-268 CNS.
For test [7], the system named is SF-295 CNS.
The subject of test [8] is SK-MEL-5 melanoma.
The test system of test [9] is SNB-75 CNS.
The subject of test [10] is SR leukemia.

Turning to `Cc1ccc(C(=O)Nc2ccccc2C(=O)N/N=C(\c2ccccc2)c2ccccn2)cc1`, the GI50 was 0.63 µM in test [1]; 9.13 µM in test [2]; 0.302 µM in test [3]; 0.359 µM in test [4]; 0.895 µM in [5]; 0.274 µM in test [6]. In addition, the GI50 was 0.377 µM in test [7], 0.271 µM in [8], 1.18 µM in test [9] and 0.208 µM in [10]. In addition, the TGI in test [2], in [3], in test [4], in test [5], in [6] and in test [7] was over 100 µM in each case. Besides, the figures for the TGI in [8], in test [9] and in test [10] were 1.15 µM, over 39.2 µM and over 100 µM, respectively.

On to `CCCCCCCCCCC(CN(CC)CC)C(O)c1ccccc1` (configuration not stated), for which the GI50 in [1] is 3.68 µM; in [2], 1.75 µM; in [3] it was 1.75 µM; in test [4], 1.63 µM; in test [5], 2.03 µM; in [6], 1.94 µM. The GI50 in [7] was 1.84 µM; in test [8], 1.48 µM; in test [9], 1.33 µM; in test [10], 2.44 µM. Further, the TGI was found to be 14.4 µM in test [1]; 4.07 µM in [2]; 3.19 µM in test [3]; 3.15 µM in test [4]; 4.66 µM in [5]; 3.87 µM in [6]. For the same compound, the TGI came to 3.48 µM in test [7], 2.88 µM in test [8], 2.7 µM in test [9] and 6.23 µM in [10].

In the case of `O=C1c2c(O)cccc2C(C(=O)CCCC(=O)C2c3cccc(O)c3C(=O)c3c(O)cccc32)c2cccc(O)c21`, the TGI in test [1] is 3.66 µM; in test [2], 0.202 µM; in [3], 1.8 µM; in test [4], 25 µM; in test [5], 1.47 µM; in [6], 3.39 µM. Further, the TGI in test [7] was determined as 2.22 µM; in test [8], 0.671 µM; in test [9] it was 2.82 µM; in test [10] it was 4.64 µM.

For `CN1CCN(c2ccc([N+](=O)[O-])c3no[n+]([O-])c23)CC1`, the GI50 was 0.288 µM in test [1]; 0.228 µM in test [2]; 0.157 µM in test [3]; 0.141 µM in test [4]; 0.697 µM in test [5]; 0.198 µM in test [6]. For the same compound, the GI50 is 0.292 µM in test [7], 1.04 µM in test [8], 0.175 µM in test [9] and 0.0201 µM in test [10]. The TGI in [1] was 2.76 µM and 1.71 µM; in [2] it was 2.41 µM and 1.93 µM; in test [3], 1.14 µM and 0.612 µM; in test [4], 1.79 µM and 0.985 µM; in test [5] it was 3.39 µM and 2.16 µM; in test [6], 0.68 µM and 1.12 µM. For the same compound, the TGI in [7] was 1.82 µM and 1.59 µM; in test [8], 2.91 µM and 2.51 µM; in [10], 0.0274 µM and 0.0936 µM.

Turning to `CC(C)c1ccc(O)c(O)c(=O)c1` (tested in a mixture with another compound), the TGI in test [1] is 25.2 µM; in test [2] it was 69.7 µM; in test [3] it was 27.2 µM; in [4], over 100 µM; in [5], over 23.4 µM; in test [6], over 61.5 µM. Besides, the TGI in test [7] was over 100 µM; in [8], 8.13 µM; in test [9], 22.8 µM; in test [10], 4.02 µM.

Turning to `NC(N)=N/N=C(/c1ccccc1)c1ccc(O)cc1O`, the TGI is 61.7 µM in test [1]; 80.3 µM in test [2]; over 100 µM in [3]; over 100 µM in test [4]; over 100 µM in test [5]; over 100 µM in [6]. For the same compound, the TGI in test [7] is over 100 µM; in [8] it was 65.8 µM; in test [9], over 100 µM; in test [10] it was 60.8 µM.

With `COc1ccc(Cn2cc3c(c2-c2ccccc2)CCc2cncnc2-3)cc1`, the GI50 in test [1] is 4.87 µM; in test [2], 1.58 µM; in test [3] it was 6.81 µM; in test [4], 4.66 µM; in [5] it was 11.5 µM; in test [6], 9.63 µM. Moreover, the GI50 in [7] was 4.02 µM; in [8] it was 3.72 µM; in [9], 3.98 µM; in test [10] it was 1.46 µM. Further, the TGI in [1] was 17.4 µM; in test [2] it was 6.51 µM; in test [3] it was 19.9 µM; in test [4] it was 18.9 µM; in [5], 26.7 µM; in [6], 22.2 µM. Also, the TGI in test [7] was 17.8 µM; in test [8] it was 14.2 µM; in test [9], 13.5 µM; in test [10], 6.7 µM.

Take `COc1cc2c(cc1-c1c(C)noc1C)ncc1[nH]c(=O)n([C@H](C)c3ccccn3)c12`: the GI50 in test [1] was 1.55 µM; in test [2] it was 0.295 µM; in test [3], 0.352 µM; in [4] it was 0.195 µM; in [5], 12.1 µM; in test [6] it was 11.7 µM. The GI50 in test [7] was 0.649 µM; in [8], 2.77 µM; in [9] it was under 0.0379 µM; in [10], 0.0756 µM. In addition, the TGI was 13.1 µM in [1]; over 100 µM in test [2]; 20.3 µM in [3]; over 100 µM in test [4]; over 100 µM in test [5]; over 100 µM in [6]. Also, the TGI in [7] was 57.4 µM; in [8], over 44 µM; in test [9], over 43.7 µM; in test [10], over 100 µM.

With `Cc1cc(Cl)ccc1Nc1nc(C(F)(F)F)ccc1C(=O)N/N=C/c1ccc(N(C)C)cc1`, the GI50 is 2.59 µM in [1]; 2.7 µM in [2]; 0.7 µM in test [3]; 1.9 µM in test [4]; 2.29 µM in [5]; 1.37 µM in test [6]. Besides, the GI50 in [7] is 1.42 µM; in [8], 2.56 µM; in test [9] it was 1.83 µM; in test [10] it was 0.872 µM. In addition, the TGI in test [1], in test [2], in test [3], in test [4], in [5] and in test [6] was over 100 µM throughout. The TGI is 4.92 µM in test [7], over 100 µM in test [8], over 100 µM in [9] and 6.79 µM in [10].

As for `Cc1cccc2cc3ccc4ccccc4c3cc12`, the TGI is over 100 µM in [1]; over 100 µM in test [2]; over 100 µM in [3]; 98 µM in test [4]; over 100 µM in [5]; over 100 µM in [6]. Further, the TGI is over 100 µM in test [7], 52.6 µM in [8], over 100 µM in test [9] and 47.4 µM in [10].

In the case of `CCN1CCN(c2nc(C)cc(N(CCCNc3ccnc4cc(Cl)ccc34)Cc3ccco3)n2)CC1`, the GI50 in [1] was 6.53 µM; in test [2], 2.87 µM; in test [3], 1.76 µM; in [4] it was 2.98 µM; in test [5], 15.3 µM; in test [6] it was 4.31 µM. The GI50 in test [7] was 1.81 µM; in [8], 1.81 µM; in [9], 1.7 µM; in [10] it was 2.08 µM. Also, the TGI was determined as 49.1 µM in test [1]; 9.97 µM in test [2]; 3.75 µM in test [3]; 14.8 µM in test [4]; 29.2 µM in test [5]; 20.6 µM in [6]. The TGI amounted to 3.63 µM in test [7], 3.3 µM in test [8], 7.55 µM in test [9] and 5.73 µM in test [10].

With `COC(=O)c1cccc2c1Oc1ccccc1S2`, the TGI in test [1], in test [2], in [3], in test [4], in test [5] and in test [6] was over 100 µM throughout. For the same compound, the TGI in test [7] was over 100 µM; in test [8] it was 54.9 µM; in test [9], 71.1 µM; in test [10] it was over 100 µM.

Consider `C[C@@H]1CCC2[C@@H](C)[C@H](OC(=O)CCC(=O)NCCNC(=O)Cc3cc(=O)oc4cc(N(C)C)ccc34)O[C@@H]3O[C@]4(C)CC[C@@H]1C23OO4` (some centres not stated), for which the GI50 in test [1] is 7.5 µM; in test [2] it was 3.21 µM; in test [3], 0.566 µM; in [4], 2.92 µM; in [5], 7.81 µM; in [6], 5.25 µM. Also, the GI50 was 2.04 µM in test [7], 1.48 µM in test [8], 8.22 µM in test [9] and 0.561 µM in test [10]. The TGI in test [1] was over 89.9 µM; in test [2], over 33.1 µM; in [3], 2.31 µM; in test [4], 28.2 µM; in [5], 35.2 µM; in test [6] it was over 65.2 µM. The TGI in test [7] is over 100 µM; in test [8], over 39.3 µM; in [9] it was 29.2 µM; in [10] it was 6.83 µM.

Consider `NCCCn1c2c(c3ccc([N+](=O)[O-])cc3c1=O)C(=O)c1cc(Cl)ccc1-2`, for which the GI50 was 0.0274 µM in test [1]; 1.11 µM in [2]; under 0.01 µM in test [3]; under 0.01 µM in test [4]; under 0.01 µM in test [5]; under 0.01 µM in test [6]. Further, the GI50 in test [7] was under 0.01 µM; in test [8], under 0.0151 µM; in test [9] it was under 0.01 µM; in [10], under 0.01 µM. For the same compound, the TGI was 0.596 µM in test [1]; 2.8 µM in test [2]; 0.117 µM in [3]; 0.141 µM in test [4]; 0.141 µM in test [5]; 0.391 µM in [6]. For the same compound, the TGI in [7] was 1.37 µM; in test [8], 0.25 µM; in test [9] it was 1.2 µM; in test [10], 0.0325 µM.

For `COc1cccc2cc(N(C)c3nc(C)nc4ccsc34)ccc12`, the GI50 in test [1] was under 0.01 µM; in test [2] it was under 0.01 µM; in test [3] it was under 0.01 µM; in test [4] it was under 0.01 µM; in test [5], under 0.015 µM; in [6] it was under 0.01 µM. In addition, the GI50 in test [7], in test [8], in test [9] and in [10] was under 0.01 µM throughout. In addition, the TGI in [1] was under 0.015 µM; in [2], 22.4 µM; in test [3], 13.6 µM; in test [4], 16.3 µM; in test [5], 19.8 µM; in [6], 13.9 µM. Moreover, the TGI in test [7] was 12.4 µM; in test [8] it was under 0.01 µM; in [9], 5.3 µM; in test [10], 26.8 µM.

On to `Cc1ccc2oc(=O)cc(C3c4ccc([nH]4)C(c4cc(=O)oc5ccc(C)cc45)c4ccc([nH]4)C(c4cc(=O)oc5ccc(C)cc45)c4ccc([nH]4)C(c4cc(=O)oc5ccc(C)cc45)c4ccc3[nH]4)c2c1` (configuration not stated), for which the GI50 in test [1] was 0.0275 µM; in [2], 0.0351 µM; in [3], 0.0365 µM; in test [4], 0.0394 µM; in [5], 0.0865 µM; in [6], 0.0561 µM. For the same compound, the GI50 was 0.027 µM in test [7], 0.032 µM in test [8], 0.0256 µM in test [9] and 0.0417 µM in test [10]. The TGI in test [1] came out at 0.248 µM; in test [2], 2.02 µM; in [3], 1.23 µM; in test [4], 1.95 µM; in test [5] it was 2.78 µM; in [6], 1.47 µM. In addition, the figures for the TGI in [7], in test [8] and in test [9] were 0.284 µM, 0.127 µM and 1.61 µM, respectively.

On to `c1cc(C2N3CCCN2CC3)ccn1` (configuration not stated), for which the TGI in [1] was over 100 µM; in [2], 67.7 µM; in [3], over 100 µM; in test [4] it was over 100 µM; in test [5], over 100 µM; in [6] it was 30.4 µM. The TGI in [7], in [8], in test [9] and in test [10] was over 100 µM in each case.
